Values joined by “and” are separate entries in the source; they are usually repeats but may differ in a detail not shown here. Identical values can stand only once. Inconclusive results and toxic doses are left out.
Test system: BDF1 mice, P388 leukemia ip, median survival T/C
Assay: NCI In Vivo Anticancer Drug Screen. Data for tumor model P388 Leukemia (intraperitoneal) in B6D2F1 (BDF1) mice
Settings: endpoint: median survival time, higher = longer survival
How it was run: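 Steps: implant the tumour, treat one group with compound and another with vehicle, record survival, then divide treated by control.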

[1] = dose: 25.0 mg/kg/injection, schedule: Q01DX009 (ip), vehicle: saline with Tween-80
[2] = dose: 25.0 mg/kg/injection, schedule: Q04DX003 (ip), vehicle: saline with Tween-80
[3] = dose: 50.0 mg/kg/injection, schedule: Q04DX003 (ip), vehicle: saline with Tween-80
[4] = dose: 100.0 mg/kg/injection, schedule: Q04DX003 (ip), vehicle: Klucel (hydroxypropylcellulose) (HPC)
[5] = dose: 200.0 mg/kg/injection, schedule: Q04DX003 (ip), vehicle: Klucel (hydroxypropylcellulose) (HPC)
[6] = dose: 100.0 mg/kg/injection, schedule: Q04DX003 (ip), vehicle: saline with Tween-80
[7] = dose: 200.0 mg/kg/injection, schedule: Q04DX003 (ip), vehicle: saline with Tween-80
[8] = dose: 400.0 mg/kg/injection, schedule: Q04DX003 (ip), vehicle: saline with Tween-80
[9] = dose: 100.0 mg/kg/injection, schedule: Q01DX009 (ip), vehicle: Klucel (hydroxypropylcellulose) (HPC)
[10] = dose: 100.0 mg/kg/injection, schedule: Q01DX009 (ip), vehicle: saline with Tween-80

In the case of `O=NN(CCCl)C(=O)Nc1c[nH]c(=O)[nH]c1=O`, the T/C (dose: 0.08 mg/kg/injection, schedule: Q04DX003 (ip), vehicle: saline with Tween-80) is reported as 155 % of control, the T/C (dose: 0.09 mg/kg/injection, schedule: Q04DX003 (ip), vehicle: saline with Tween-80) is reported as 100 % of control and the T/C (dose: 0.15 mg/kg/injection, schedule: Q04DX003 (ip), vehicle: saline with Tween-80) is reported as 180 % of control. For the same compound, the T/C (dose: 0.3 mg/kg/injection, schedule: Q04DX003 (ip), vehicle: saline with Tween-80) was 185 % of control, the T/C (dose: 0.78 mg/kg/injection, schedule: Q04DX003 (ip), vehicle: saline with Tween-80) was 175 % of control and the T/C (dose: 1.56 mg/kg/injection, schedule: Q04DX003 (ip), vehicle: saline with Tween-80) was 154 % of control. For the same compound, the T/C (dose: 2.4 mg/kg/injection, schedule: Q01DX009 (ip), vehicle: saline with Tween-80) was 186 % of control, the T/C (dose: 3.12 mg/kg/injection, schedule: Q04DX003 (ip), vehicle: saline with Tween-80) was 213 % of control and the T/C (dose: 3.6 mg/kg/injection, schedule: Q01DX009 (ip), vehicle: saline with Tween-80) was 201 % of control. For the same compound, the T/C (dose: 4.0 mg/kg/injection, schedule: Q01DX009 (ip), vehicle: saline with Tween-80) was 195 % of control, the T/C (dose: 5.5 mg/kg/injection, schedule: Q01DX009 (ip), vehicle: saline with Tween-80) was 193 % of control and the T/C (dose: 6.0 mg/kg/injection, schedule: Q01DX009 (ip), vehicle: saline with Tween-80) was 229 % of control. The T/C (dose: 6.25 mg/kg/injection, schedule: Q04DX003 (ip), vehicle: saline with Tween-80) was 190 % of control, the T/C (dose: 8.0 mg/kg/injection, schedule: Q01DX009 (ip), vehicle: saline with Tween-80) was 220 % of control and the T/C (dose: 8.0 mg/kg/injection, schedule: Q04DX003 (ip), vehicle: saline with Tween-80) was 204 % of control. The T/C (dose: 9.0 mg/kg/injection, schedule: Q01DX009 (ip), vehicle: saline with Tween-80) was 120 % of control, the T/C (dose: 12.0 mg/kg/injection, schedule: Q01DX009 (ip), vehicle: saline with Tween-80) was 250 % of control and the T/C (dose: 12.0 mg/kg/injection, schedule: Q04DX003 (ip), vehicle: saline with Tween-80) was 204 % of control. For the same compound, the T/C (dose: 12.5 mg/kg/injection, schedule: Q01DX009 (ip), vehicle: saline with Tween-80) was 250 % of control, the T/C (dose: 12.5 mg/kg/injection, schedule: Q04DX003 (ip), vehicle: saline with Tween-80) was 230 % of control and the T/C (dose: 18.0 mg/kg/injection, schedule: Q01DX009 (ip), vehicle: saline with Tween-80) was 104 % of control. For the same compound, the T/C (dose: 18.0 mg/kg/injection, schedule: Q04DX003 (ip), vehicle: saline with Tween-80) was 227 % of control, the T/C [1] was 100 % of control and the T/C [2] was 230 % of control. The T/C [3] was 230 % of control.
`C/C=C(/Cl)c1c(C)cc(C)c(CC(=O)O)c1C` was tested, and the T/C [4] was 87 % of control, the T/C [5] was 95 % of control and the T/C (dose: 400.0 mg/kg/injection, schedule: Q04DX003 (ip), vehicle: Klucel (hydroxypropylcellulose) (HPC)) was 95 % of control.
For `CC(C)(C1=CC=CS1(=O)=O)C1=CC=C(C(C)(C)C2=CC=CS2(=O)=O)S1(=O)=O`, the T/C (dose: 100.0 mg/kg/injection, schedule: Q01DX001 (ip), vehicle: saline with Tween-80) was 102 % of control, the T/C (dose: 200.0 mg/kg/injection, schedule: Q01DX001 (ip), vehicle: saline with Tween-80) was 94 % of control and the T/C (dose: 400.0 mg/kg/injection, schedule: Q01DX001 (ip), vehicle: saline with Tween-80) was 106 % of control.
For `[Cl][Eu]([Cl])[Cl]`, the T/C (dose: 6.25 mg/kg/injection, schedule: Q01DX009 (ip), vehicle: saline) was 98 % of control, the T/C (dose: 12.5 mg/kg/injection, schedule: Q01DX009 (ip), vehicle: saline) was 100 % of control and the T/C (dose: 25.0 mg/kg/injection, schedule: Q01DX009 (ip), vehicle: saline) was 92 % of control. The T/C (dose: 50.0 mg/kg/injection, schedule: Q01DX009 (ip), vehicle: saline) was 96 % of control.
With `COc1ccc(NC(C)=O)c(/C=N/Nc2ccc([N+](=O)[O-])cc2[N+](=O)[O-])c1` the T/C (dose: 50.0 mg/kg/injection, schedule: Q04DX002 (ip), vehicle: saline with Tween-80) was 89 % of control, the T/C (dose: 100.0 mg/kg/injection, schedule: Q04DX002 (ip), vehicle: saline with Tween-80) was 106 % of control and the T/C (dose: 200.0 mg/kg/injection, schedule: Q04DX002 (ip), vehicle: saline with Tween-80) was 106 % of control.
In the case of `CC(C)(CBr)C(=O)N1CCN(C(=O)C(C)(C)CBr)CC1`, the T/C (dose: 20.0 mg/kg/injection, schedule: Q04DX003 (ip), vehicle: Klucel (hydroxypropylcellulose) (HPC)) is reported as 150 % of control, the T/C (dose: 30.0 mg/kg/injection, schedule: Q04DX003 (ip), vehicle: Klucel (hydroxypropylcellulose) (HPC)) is reported as 159 % of control and 163 % of control and the T/C (dose: 44.0 mg/kg/injection, schedule: Q04DX003 (ip), vehicle: Klucel (hydroxypropylcellulose) (HPC)) is reported as 163 % of control and 165 % of control. The T/C [4] was 195 % of control and 200 % of control and the T/C (dose: 150.0 mg/kg/injection, schedule: Q04DX003 (ip), vehicle: Klucel (hydroxypropylcellulose) (HPC)) was 175 % of control.
For `FC(F)(F)C1=NC(=S)C(c2[nH]c(C(F)(F)F)nc2S)=N1`, the T/C (dose: 3.12 mg/kg/injection, schedule: Q01DX009 (ip), vehicle: water) was 91 % of control, the T/C (dose: 6.25 mg/kg/injection, schedule: Q01DX009 (ip), vehicle: water) was 99 % of control and the T/C (dose: 12.5 mg/kg/injection, schedule: Q01DX009 (ip), vehicle: water) was 108 % of control. The T/C (dose: 12.5 mg/kg/injection, schedule: Q04DX003 (ip), vehicle: water) was 89 % of control and 107 % of control, the T/C (dose: 25.0 mg/kg/injection, schedule: Q01DX009 (ip), vehicle: water) was 103 % of control and the T/C (dose: 25.0 mg/kg/injection, schedule: Q04DX003 (ip), vehicle: water) was 95 % of control and 100 % of control. For the same compound, the T/C (dose: 50.0 mg/kg/injection, schedule: Q01DX009 (ip), vehicle: water) was 112 % of control, the T/C (dose: 50.0 mg/kg/injection, schedule: Q04DX003 (ip), vehicle: water) was 89 % of control and 100 % of control and the T/C (dose: 100.0 mg/kg/injection, schedule: Q01DX009 (ip), vehicle: water) was 110 % of control. The T/C (dose: 100.0 mg/kg/injection, schedule: Q04DX003 (ip), vehicle: water) was 89 % of control and 105 % of control.
`O=C1c2sccc2-c2cccc3cccc1c23` was tested, and the T/C [3] was 96 % of control, the T/C [6] was 93 % of control and the T/C [7] was 94 % of control. The T/C [8] was 86 % of control.
With `CCOC(=O)c1c[nH]c(=S)n1C` the T/C [9] was 95 % of control, the T/C [4] was 95 % of control and the T/C (dose: 200.0 mg/kg/injection, schedule: Q01DX009 (ip), vehicle: Klucel (hydroxypropylcellulose) (HPC)) was 104 % of control. For the same compound, the T/C [5] was 91 % of control.
In the case of `CSC(=S)NNC(=O)C1CCCCC1`, the T/C (dose: 25.0 mg/kg/injection, schedule: Q01DX001 (ip), vehicle: saline sonified) is reported as 100 % of control, the T/C (dose: 50.0 mg/kg/injection, schedule: Q01DX001 (ip), vehicle: saline sonified) is reported as 104 % of control and the T/C (dose: 100.0 mg/kg/injection, schedule: Q01DX001 (ip), vehicle: saline sonified) is reported as 100 % of control.
For `CCN(CC)C(=S)SSC(=S)N(CC)CC`, the T/C (dose: 75.0 mg/kg/injection, schedule: Q01DX001 (ip), vehicle: Klucel (hydroxypropylcellulose) (HPC)) was 104 % of control, the T/C (dose: 150.0 mg/kg/injection, schedule: Q01DX001 (ip), vehicle: Klucel (hydroxypropylcellulose) (HPC)) was 104 % of control and the T/C (dose: 300.0 mg/kg/injection, schedule: Q01DX001 (ip), vehicle: Klucel (hydroxypropylcellulose) (HPC)) was 95 % of control.
In the case of `COC(=O)C(NC(=O)OCc1ccccc1)C(=O)OC`, the T/C [10] is reported as 104 % of control, the T/C [6] is reported as 104 % of control and the T/C (dose: 200.0 mg/kg/injection, schedule: Q01DX009 (ip), vehicle: saline with Tween-80) is reported as 95 % of control. For the same compound, the T/C [7] was 109 % of control, the T/C (dose: 400.0 mg/kg/injection, schedule: Q01DX009 (ip), vehicle: saline with Tween-80) was 95 % of control and the T/C [8] was 100 % of control.
`C1CC[N-]CC1.C1CC[N-]CC1.[I][Pt+2][I]` was tested, and the T/C (dose: 50.0 mg/kg/injection, schedule: Q01DX009 (ip), vehicle: Klucel (hydroxypropylcellulose) (HPC)) was 93 % of control and the T/C [9] was 93 % of control.
`C/C(=N/O)[c-]1[c-][c-][c-][c-]1.[Fe].[c-]1[c-][c-][cH-][c-]1` was tested, and the T/C [2] was 100 % of control, the T/C [3] was 109 % of control and the T/C [6] was 109 % of control.
For `COc1ccc(C2CC(c3ccccc3O)=NC(c3ccc(OC)cc3)N2)cc1` (stereo unspecified), the T/C [1] was 91 % of control, the T/C (dose: 50.0 mg/kg/injection, schedule: Q01DX009 (ip), vehicle: saline with Tween-80) was 94 % of control and the T/C [10] was 92 % of control.
